Patent US20230381473A1, “Drug Device Electroporation Angioplasty System” (Hydra Vascular LLC, priority 2014, published 2023)

Assay: Ex vivo energy facilitated drug delivery from coated balloon to arteries in closed flow loop, HPLC quantification
Assay type: in vitro ADME, swine
Details: ex vivo porcine arteries, Trireme Chocolate balloon 6.0×40 coated with paclitaxel:PEG-8000 5:1 at 3.0 ug/mm2, GenePulser II 0.5 kV/1 μF, 3 pulses during about 1 minute expansion, vs same device without voltage
Excerpt: The energy source to power the device is a pulse generator capable of producing square waves. One commercial example of such a device is the BioRad Gene Pulser II (FIG. 7). The square wave generator produces suitable voltages between the range of 0.001 kV and 5 kV across the membrane. For all prototyping, this device was used to power all of coated catheters by connecting to the wire connection at the proximal catheter end. […] The tissue is then stored in isotonic saline and placed on ice (or 4° C.) for immediate use in an ex-vivo circulatory system.
Ex Vivo Testing Protocol • Fresh PBS is made with pre-measured pellets (1 pellet/100 ml H2O). • Porcine arterial tissue was acquired and cut to length • Arteries are placed in fresh PBS while cleaning of adventitia is performed. • Arteries are attached to the circulation apparatus with cannulas to allow flow through the vessel. […]

For `CC(=O)O[C@H]1C(=O)[C@@]2(C)[C@H]([C@H](OC(=O)c3ccccc3)[C@]3(O)C[C@H](OC(=O)[C@H](O)[C@@H](NC(=O)c4ccccc4)c4ccccc4)C(C)=C1C3(C)C)[C@]1(OC(C)=O)CO[C@@H]1C[C@@H]2O` [paclitaxel], which “enhancement of the transfer of paclitaxel to arteries by application of voltage (factor)” value is on record?
Its value is 10 ×.
